This note sets out measurements from article PMC12040169 (PLOS Biology, 2025).

The first data set is described as follows: in vitro. As to conditions: human, hela cells, % viability.
As for `Cc1nnc2n1-c1ccccc1SC(c1ccccc1)C2` (centres unmarked) [CBK016040], the viability at 28.5 h, 10 µM worked out at 92.9%.
The same measure, in the same setting: with `C/C(=N\NC(=O)C1CC1)c1ccc(C)cc1` [CBK016047] the figure was 90.7%; with `CCN(CC)CCn1nc2n(c1=O)-c1ccccc1SC(c1ccccc1)C2` (centres unmarked) [CBK016064], 91.9%; with `Cc1ccc2cn[nH]c2c1` [CBK016109], 123%.
Turning to `CCOC(=O)N/N=C1\CCCCC1CC` (centres unmarked) [CBK016112], the viability at 28.5 h, 10 µM was 84.7%.
As for `COC(=O)Nc1nc2cc3cn[nH]c3cc2[nH]1` [CBK016129], the viability at 28.5 h, 10 µM turned out to be 105%.
As to `COC(=O)N/N=C(/C)c1ccc(C)cc1` [CBK016149], the viability at 28.5 h, 10 µM stood at 109%.
In the case of `Clc1ccccc1-c1nsc(Nc2ccccc2)n1` [CBK016152], the viability at 28.5 h, 10 µM stood at 96.2%.
In the case of `O=C(OCCN1C[C@H]2CCCCC2C1c1ccccc1)c1ccc(Br)cc1` (some centres unmarked) [CBK016175C], the viability at 28.5 h, 10 µM came to 104%.
Same read-out and setting: with `Cn1c(=O)c(-c2ccccc2)nc2ccccc21` [CBK016192] the figure was 143%; with `Oc1nc2ccccc2nc1-c1ccccc1` [CBK016193], 94.3%.
With `O=C1CC2CC3CC2C(Sc2ccccc2)C3O1` (centres unmarked) [CBK016225], the viability at 28.5 h, 10 µM came out at 97.4%.
With `Fc1ccc(C2CCCN(CCCOc3cccc(F)c3)C2)cc1` (centres unmarked) [CBK016228B], the viability at 28.5 h, 10 µM is 102%.
The same measure, in the same setting: next, `COc1c(C(N)=O)c(O)c(OC)c2occc12` [CBK016255]: 80.5%; `O=C(C[n+]1ccccc1)c1ccccc1Cl` [CBK016283B]: 112%; `O=C(NCCCN1CCOCC1)Nc1cccc(Cl)c1Cl` [CBK016286]: 85.5%.
Regarding `CC(=O)c1cc(C)c(C)cc1N` [CBK016322], the viability at 28.5 h, 10 µM was 127%.
Turning to `Oc1cccnc1SCc1nc2ccccc2s1` [CBK016367], the viability at 28.5 h, 10 µM is 112%.
On the same count and under the same terms, with `Nc1ccc2nc(CCCCCC(=O)O)sc2c1` [CBK016399] the figure was 114%.
In the case of `O=C(NO)Nc1cc(Cl)cc(Cl)c1` [CBK016430], the viability at 28.5 h, 10 µM was determined as 109%.
The same measure, in the same setting: with `O=c1cc(-c2ccc(Br)cc2)nc2[nH]ccn12` [CBK016446] the figure was 81%.
On the same count and under the same terms, with `CCOC(=O)N/N=C(/C)C(C)(C)C` [CBK016460] the figure was 105%; with `CN(C)CCCN[C@H]1CC[C@@H](c2ccccc2)CC1` [CBK016465], 96.2%.
`Cc1ccc(/C=N\NC(=O)c2cccc(Cl)c2)s1` [CBK016469]: the viability at 28.5 h, 10 µM was determined as 90.8%.
Still for that read-out and setting: with `CCCC/C(=N/N=C(\CCCC)c1ccncc1)c1ccncc1` [CBK016521] the figure was 120%; with `O=c1cc(N2CCOCC2)oc2cccc(O)c12` [CBK016536], 91.3%.
Still for that read-out and setting: with `NC(=O)c1cc2c(OCCCN3CCN(C(c4ccccc4)c4ccccc4)CC3)cccc2[nH]1` [CBK016544] the figure was 96%; with `Cc1cc2c(N3CCCC3)nc(N3CCCC3)nc2n1C` [CBK016633C], 101%.
As to `Cc1c(OCCC2CCCCN2C)ccc2c(=O)cc(N3CCOCC3)oc12` (centres unmarked) [CBK016644], the viability at 28.5 h, 10 µM was 91.8%.
Still for that read-out and setting: next, `S=C(NCc1ccc(Cl)c(Cl)c1)Nc1ccncc1` [CBK016649]: 84.9%; `S=C(NCc1ccc(Cl)cc1)Nc1ccncc1` [CBK016651]: 79.5%.
For the molecule `CC(C)n1c(=O)c2c(-c3cc(C(C)(C)C)no3)ncn2c2ccccc21` [CBK016666], the viability at 28.5 h, 10 µM was 86.6%.
Still for that read-out and setting: next, `CCC(C)(C)Nc1cccnc1N(C)C1CCN(C(=O)c2cc3cc(N)ccc3[nH]2)CC1` [CBK016674]: 80.3%.
As to `CCC(c1ccc2ccccc2c1)c1c(O)c2ccccc2oc1=O` (centres unmarked) [CBK016681], the viability at 28.5 h, 10 µM stood at 96.7%.
The same measure, in the same setting: with `C[C@@H]1c2c(C(=O)OC(C)(C)C)ncn2-c2ccc(F)cc2N1CC(=O)N1CCCC1` [CBK016704] the figure was 85.3%; with `c1c(C2CC2)[nH]c2nc(N3CCCC3)nc(N3CCCC3)c12` [CBK016707G], 113%; with `CCc1c(C)nn(-c2ccccc2Cl)c1-c1ccccc1` [CBK016736], 106%.
In the case of `CCc1c(C)nn(-c2ccccc2Br)c1-c1ccccc1` [CBK016757], the viability at 28.5 h, 10 µM was determined as 87.9%.
Regarding `CN(c1ncccc1C#N)C1CCN(CCC(N)=O)CC1` [CBK016793], the viability at 28.5 h, 10 µM worked out at 87.2%.
`CN(C)c1ncnc2[nH]ncc12` [CBK016810]: the viability at 28.5 h, 10 µM was determined as 115%.
Still for that read-out and setting: next, `CCNc1cccnc1N(CC)C1CCN(C(=O)c2cc3cc4c(cc3[nH]2)OCO4)CC1` [CBK016815]: 111%.
Take `CC(C)c1ccnc(C(C)Sc2nc(N)c(Br)c(Cl)n2)c1` (centres unmarked) [CBK016828]: the viability at 28.5 h, 10 µM worked out at 86.1%.
For the molecule `COc1ccc(CCC(=O)c2cnc3sc4c(n23)CCCCC4)cc1` [CBK016849], the viability at 28.5 h, 10 µM stood at 109%.
The same measure, in the same setting: next, `O=C(Nc1cccc(F)c1)c1cc2ccccc2cc1O` [CBK016863]: 102%; `O=C(Nc1cccc(Cl)c1)c1cc2cc(O)ccc2cc1O` [CBK016894]: 98.2%.
The same measure, in the same setting: next, `O=C1NCCN1c1cccc(Cl)c1` [CBK016915]: 88.3%.
The same measure, in the same setting: with `Cc1csc2c(NC(C)C)ncnc12` [CBK017059] the figure was 95.7%; with `Cc1csc2ncnc(NCCc3ccccn3)c12` [CBK017060], 67.1%; with `CSc1nnc(-c2ccc(C(C)(C)C)cc2)n1Cc1ccco1` [CBK017071], 92.1%.
Consider `Cc1cc(NC(=O)CCN2CCCCC2)no1` [CBK017079], for which the viability at 28.5 h, 10 µM was 99%.
The same measure, in the same setting: with `O=C1NCCCCC1N1CCS(=O)(=O)CC1` (centres unmarked) [CBK017083] the figure was 99.2%; with `CC1CN(C(=O)NC(=O)c2ccc(-c3csnn3)cc2)CC(C)O1` (centres unmarked) [CBK017091], 87.7%; with `CSc1sc(NC(=O)Nc2cccc(C(F)(F)F)c2)cc1C#N` [CBK017114], 93.9%.
The same measure, in the same setting: with `O=C(O)c1cccc2c1Sc1ccccc1O2` [CBK017129] the figure was 90.8%.
Turning to `Nc1cc(Cl)cc2[nH]c(=O)c3cc(Cl)ccc3c12` [CBK017144], the viability at 28.5 h, 10 µM was 73.3%.
Still for that read-out and setting: with `O=C(Nc1ccc(F)cc1)OCC1COc2ccccc2C1` (centres unmarked) [CBK017146] the figure was 85.5%; with `O=C1Nc2ccccc2C12NN=C(c1ccccc1)S2` (centres unmarked) [CBK017221], 100%; with `CCOC(=O)C(N)CSC1CC(=O)N(c2ccc(Br)cc2)C1=O` (centres unmarked) [CBK017250C], 102%.
Still for that read-out and setting: with `O=c1cc(NCc2ccncc2)c2ccccc2o1` [CBK017259] the figure was 93.5%; with `CS(=O)(=O)c1nc2cccnc2s1` [CBK017260], 95.2%.
On the same count and under the same terms, next, `O=C1CSC(c2cccnc2)N1CCc1ccccn1` (centres unmarked) [CBK017292]: 96.7%; `Cc1cc(C)[n+]2c(n1)N(c1ccccc1)CC2` [CBK017327G]: 80.7%.
Consider `CCn1c(=O)c2c(cnn2C)c2ccccc21` [CBK017345], for which the viability at 28.5 h, 10 µM stood at 81.3%.
On the same count and under the same terms, with `N#Cc1[nH]nnc1-c1ccc(OC(F)(F)F)cc1` [CBK017386] the figure was 95.1%.
Turning to `COc1cc(/C=C(/C#N)C(N)=O)cc(Br)c1O` [CBK017409], the viability at 28.5 h, 10 µM was 88.1%.
`Nc1nnc(Nc2ccc(Cl)cc2)[nH]1` [CBK017433]: the viability at 28.5 h, 10 µM stood at 91.7%.
`CCCCCc1c(C)nc(-c2ccccn2)nc1O` [CBK017441]: the viability at 28.5 h, 10 µM turned out to be 86.4%.
On to `Nc1ncnc(Nc2cccc(F)c2)n1` [CBK017447], for which the viability at 28.5 h, 10 µM came to 91.7%.
Still for that read-out and setting: with `Cc1cc(C2(C(F)(F)F)C=C3c4ccccc4CC(C)(C)N3C2=O)cc(C)c1O` (centres unmarked) [CBK017463] the figure was 99.2%; with `OC[C@@H](c1ccccc1)N1CC[C@H]2c3ccc(Br)cc3CC[C@H]21` [CBK017507C], 84.4%; with `CC(C)Cn1cnc2c(Cl)nc3ccccc3c21` [CBK017530], 86.4%.
Still for that read-out and setting: next, `CC(=O)NC[C@H]1CN(c2ccc(C3=CC[S+]([O-])CC3)c(F)c2)C(=O)O1` (some centres unmarked) [CBK017555]: 92.5%; `CS(=O)(=O)Nc1ccc2c(O)c(C(=O)NCc3ccc(Cl)cc3)c(=O)[nH]c2c1` [CBK017559]: 88.9%.
The same measure, in the same setting: with `CCCN(Cc1cccs1)C1Cc2cc(OC)c(OC)cc2C1` [CBK017567C] the figure was 96.8%; with `CC(=O)Oc1cc(Cl)ccc1C(=O)Nc1nnc(C(F)(F)F)s1` [CBK017569], 84%.
Consider `O=C(Nc1ccc(C(F)(F)F)cc1)C1=C(O)CN(c2ccc(Cl)cc2)C1=O` [CBK017603], for which the viability at 28.5 h, 10 µM came to 84.8%.
Take `O=C(N[C@@H](Cc1ccc(OCc2ccc(Cl)cc2Cl)cc1)C(=O)O)C1CCCC1` [CBK017610]: the viability at 28.5 h, 10 µM turned out to be 82.9%.
Consider `O=C1O[C@@H](CCl)CN1c1ccc(N2CCOCC2)c(F)c1` [CBK017613], for which the viability at 28.5 h, 10 µM came out at 105%.
Still for that read-out and setting: with `O=C1CCCN1CCCNC(=O)C1(c2ccccc2)COc2ccccc21` (centres unmarked) [CBK017653] the figure was 92.3%; with `CCCOc1ccc(C2(CCCCN3CCCC3)C(=O)Oc3ccc(C(C)(C)C)cc32)cc1` (centres unmarked) [CBK017655C], 99.1%.
On to `CC(C)N(CCC(c1ccccc1)c1cc(Br)ccc1OCc1ccccc1)C(C)C` (centres unmarked) [CBK017656], for which the viability at 28.5 h, 10 µM is 79.4%.
Same read-out and setting: with `Cc1cccc(C)c1NC(=O)C(C#N)C(=O)c1nn(-c2ccccc2)c2c1CSc1ccccc1-2` (centres unmarked) [CBK017678] the figure was 81.8%.
On the same count and under the same terms, next, `N#C/C(C(=O)Nc1ccccc1)=C(/O)c1nn(-c2ccccc2)c2c1CSc1ccccc1-2` [CBK017685]: 92.7%.
On the same count and under the same terms, with `N#CC(C(=O)NC1CCCCC1)C(=O)c1nn(-c2ccccc2)c2c1CSc1ccccc1-2` (centres unmarked) [CBK017690] the figure was 103%; with `C#CCNCCCOc1ccccc1Oc1ccccc1` [CBK017707C], 94.2%.

Still in this data set, the particulars now being: human, hela cells, % viability, bulk resorufin, single well.
Turning to `CCCN(CCCc1ccccc1)C1Cc2cc(OC)c(OC)cc2C1` [CBK017596C], the viability at 28.5 h, 10 µM came to 96.6%.
